Laboratory results taken from patent US20050215548A1 (Cyclacel Limited, priority 2002, published 2005).
Like-named read-outs stand apart in the source and are kept apart here.

Experiments:
Nci-H460 = assay: 72-h MTT cytotoxicity assay, Nci-H460; format: cell-based; settings: Homo sapiens, Nci-H460, Large cell lung carcinoma, read-out: Anti-proliferative activity, 72-h MTT IC50
Protocol: (§1) Representative bisarylsulfonamide compounds were tested on a panel of transformed and non-transformed human cell lines, using a standard 72-h MTT cytotoxicity assay [Haselsberger K et al, ibid].

NaCat = assay: 72-h MTT cytotoxicity assay, NaCat; format: cell-based; settings: Keratinocyte, Human keratinocytes, read-out: Anti-proliferative activity, 72-h MTT IC50
Protocol: as §1

HeLa = assay: 72-h MTT cytotoxicity assay, HeLa; format: cell-based; settings: Homo sapiens, Cervical carcinoma, read-out: Anti-proliferative activity, 72-h MTT IC50
Protocol: as §1

IMR90 = assay: 72-h MTT cytotoxicity assay, IMR90; format: cell-based; settings: Homo sapiens, IMR-90, 72 h; IMR90, Lung fibroblasts; read-out: Anti-proliferative activity, 72-h MTT IC50
Protocol: as §1

carcinoma cell lines = assay: 72-h MTT panel, average carcinomas; format: cell-based; settings: Homo sapiens, average over carcinoma cell lines, read-out: Anti-proliferative activity, 72-h MTT IC50, Average carcinomas
Protocol: as §1
(§2) This differential selectivity further supports the notion that the bisarylsulfonamides modulate cellular HDM2 function. It is known that HDM2 amplification is particularly common in soft tissue sarcomas and osteosarcomas [Momand J et al, ibid; Bartel F, Meye A, Wurl P, Kappler M, Bache M, Lautenschlager C, Grunbaum U, Schmidt H, Taubert H; Int. J. Cancer 2001; 95: 168-175].

[1] = test system: transformed human cell lines; assay: 72-h MTT panel, average transformed; format: cell-based; settings: average over transformed cell lines, read-out: Anti-proliferative activity, 72-h MTT IC50, Average transformed
Protocol: as §1, §2

Lovo = assay: 72-h MTT cytotoxicity assay, Lovo; format: cell-based; settings: Homo sapiens, Colon adenocarcinoma, read-out: Anti-proliferative activity, 72-h MTT IC50
Protocol: as §1

HT29 = assay: 72-h MTT cytotoxicity assay, HT29; format: cell-based; settings: Homo sapiens, HT-29, 72 h; HT29, Colon adenocarcinoma; read-out: Anti-proliferative activity, 72-h MTT IC50
Protocol: as §1

SKUT-1 = assay: 72-h MTT cytotoxicity assay, SKUT-1; format: cell-based; settings: Homo sapiens, SK-UT-1, 72 h; SKUT-1, Uterus leiomyosarcoma; read-out: Anti-proliferative activity, 72-h MTT IC50
Protocol: as §1

[2] = test system: non-transformed human cell lines; assay: 72-h MTT panel, average non-transformed; format: cell-based; settings: average over non-transformed cell lines, read-out: Anti-proliferative activity, 72-h MTT IC50, Average non-transformed
Protocol: as §1, §2

HDM2 = biological target: T1, HDM2 (Homo sapiens, UniProt Q00987); assay: Fluorescence polarisation competitive HDM2 binding assay
T1 construct: Recombinant HDM2 (1.5 μg per well) in TBS-BSA buffer
How it was run: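 Recombinant HDM2 (1.5 μg/well) was preincubated 5 min at room temperature with serially diluted compound in 50 mM Tris pH 7.4, 150 mM NaCl, 0.1% BSA, 5% DMSO final. Fluorescein-labelled p53 peptide (0.2 μM) was then added for 45 min. Polarisation was read at 485/520 nm and IC50 derived from dose-response curves.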

SK-N-MC = assay: 72-h MTT cytotoxicity assay, SK-N-MC; format: cell-based; settings: Homo sapiens, Neuriepithelioma, read-out: Anti-proliferative activity, 72-h MTT IC50
Protocol: as §1

Messa-Dx5 = assay: 72-h MTT cytotoxicity assay, Messa-Dx5; format: cell-based; settings: Homo sapiens, MES-SA/Dx5, 72 h; Messa-Dx5, Uterus sarcoma; read-out: Anti-proliferative activity, 72-h MTT IC50
Protocol: as §1

HCT116 = assay: 72-h MTT cytotoxicity assay, HCT116; format: cell-based; settings: Homo sapiens, HCT-116, 72 h; HCT116, Colon carcinoma; read-out: Anti-proliferative activity, 72-h MTT IC50
Protocol: as §1

U2OS = assay: 72-h MTT cytotoxicity assay, U2OS; format: cell-based; settings: Homo sapiens, Osteosracoma, read-out: Anti-proliferative activity, 72-h MTT IC50
Protocol: as §1

SJSA-1 = assay: 72-h MTT cytotoxicity assay, SJSA-1; format: cell-based; settings: Homo sapiens
How it was run: (§3)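 Human tumour cells; SJSA-1 = bone sarcoma, wt p53, HDM2 overexpressed. H1299 = large cell lung ca., p53-null, low HDM2. AGS = gastric adenocarcinoma, wt p53. Endpoint: anti-proliferative potency.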

Saos-2 = assay: 72-h MTT cytotoxicity assay, Saos-2; format: cell-based; settings: Homo sapiens, Saos-2, Osteosracoma, read-out: Anti-proliferative activity, 72-h MTT IC50
Protocol: as §1

MCF7 = assay: 72-h MTT cytotoxicity assay, MCF7; format: cell-based; settings: Homo sapiens, MCF7, Breast adenocarcinoma, read-out: Anti-proliferative activity, 72-h MTT IC50
Protocol: as §1

AGS = assay: 72-h MTT cytotoxicity assay, AGS; format: cell-based; settings: Homo sapiens
How it was run: as §3

A549 = assay: 72-h MTT cytotoxicity assay, A549; format: cell-based; settings: Homo sapiens, A549, Lung carcinoma, read-out: Anti-proliferative activity, 72-h MTT IC50
Protocol: as §1

DU145 = assay: 72-h MTT cytotoxicity assay, DU145; format: cell-based; settings: Homo sapiens, DU-145, 72 h; DU145, Prostate carcinoma; read-out: Anti-proliferative activity, 72-h MTT IC50
Protocol: as §1

Messa = assay: 72-h MTT cytotoxicity assay, Messa; format: cell-based; settings: Homo sapiens, MES-SA, Uterus sarcoma, read-out: Anti-proliferative activity, 72-h MTT IC50
Protocol: as §1

sarcoma cell lines = assay: 72-h MTT panel, average sarcomas; format: cell-based; settings: Homo sapiens, average over sarcoma cell lines, read-out: Anti-proliferative activity, 72-h MTT IC50, Average sarcomas
Protocol: as §1, §2

[3] = fluorescence polarisation assay, Table 3, read-out: In vitro competitive HDM2 binding assay IC50
[4] = fluorescence polarisation format, Table 1, read-out: IC50 In vitro competitive HDM2 binding assay
[5] = 72 h, SJSA-1, Osteosracoma, Table 2, read-out: Anti-proliferative activity, 72-h MTT IC50
[6] = SJSA-1, 72-h MTT, Table 1, read-out: IC50 Anti-proliferative effect on cell line SJSA-1
[7] = 72-h MTT, Table 1, read-out: IC50 Anti-proliferative effect on cell line AGS
[8] = 72 h, Gastric adenocarcinoma, Table 2, read-out: Anti-proliferative activity, 72-h MTT IC50

T1 sequence (Q00987 whole entry): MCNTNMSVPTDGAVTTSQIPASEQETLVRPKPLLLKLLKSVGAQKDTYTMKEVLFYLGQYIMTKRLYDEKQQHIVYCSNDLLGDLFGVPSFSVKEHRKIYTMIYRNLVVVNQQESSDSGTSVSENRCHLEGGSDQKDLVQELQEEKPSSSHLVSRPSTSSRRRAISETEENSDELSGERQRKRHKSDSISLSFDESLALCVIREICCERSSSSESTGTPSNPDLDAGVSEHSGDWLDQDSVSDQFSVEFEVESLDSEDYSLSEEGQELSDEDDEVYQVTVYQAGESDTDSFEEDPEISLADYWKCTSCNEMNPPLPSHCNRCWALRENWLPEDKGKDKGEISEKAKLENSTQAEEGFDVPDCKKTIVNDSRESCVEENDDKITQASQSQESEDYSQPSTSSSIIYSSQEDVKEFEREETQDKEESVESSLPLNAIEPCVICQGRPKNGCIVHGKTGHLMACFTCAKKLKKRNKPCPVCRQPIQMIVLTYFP

SMILES | IC50 (Nci-H460) [µM] | IC50 (NaCat) [µM] | IC50 (HeLa) [µM] | IC50 (IMR90) [µM] | IC50 (carcinoma cell lines) [µM] | IC50 [1] [µM] | IC50 (Lovo) [µM] | IC50 (HT29) [µM] | IC50 (SKUT-1) [µM] | IC50 [2] [µM] | IC50 (HDM2; [3]) [µM] | IC50 (HDM2; [4]) [µM] | IC50 (SK-N-MC) [µM] | IC50 (Messa-Dx5) [µM] | IC50 (HCT116) [µM] | IC50 (U2OS) [µM] | IC50 (SJSA-1; [5]) [µM] | IC50 (SJSA-1; [6]) [µM] | IC50 (Saos-2) [µM] | IC50 (MCF7) [µM] | further results
O=[N+]([O-])c1cc(S(=O)(=O)Nc2ccc(Cl)cc2)sc1Cl [Compound 2, 5-Chloro-4-nitrothiophene-2-sulfonic acid (4-chlorophenyl)-amide] | 3.3 | 9.3 | 2.8 | 23.1 | 3.1 ± 1.2 | 5.7 ± 3.9 | 2.1 | 2.1 | 8.8 | 21 ± 3.1 | 26.4 ± 3.4 | 26.4 ± 3.4 | 3 | 9.5 | 2.8 | 6.2 | 13.5 | 13.6 ± 1.1 | 9.5 | 2.7 | IC50 (SJSA-1; SJSA-1, Example 9, read-out: anti-proliferative IC50 concentration determined for each cell line): 15 µM; IC50 (AGS; [7]): 1.1 ± 0.2 µM; IC50 (AGS; [8]): 1.2 µM; IC50 (AGS; Example 9, read-out: anti-proliferative IC50 concentration determined for each cell line): 1 µM; IC50 (A549): 5.2 µM; IC50 (DU145): 3.1 µM; IC50 (Messa): 13.1 µM; IC50 (sarcoma cell lines): 10.2 ± 2.7 µM
O=[N+]([O-])c1cc(S(=O)(=O)Nc2ccc(F)cc2)sc1Cl [Compound 3, 5-Chloro-4-nitrothiophene-2-sulfonic acid (4-fluorophenyl)amide] | 5.2 | 10.5 | 2.7 | 19.8 | 3.8 ± 1.8 | 6.9 ± 5 | 2.3 | 2.3 | 14.1 | 18.7 ± 3.1 | 41.9 ± 5.8 | 41.9 ± 5.8 | 3.8 | 12.1 | 3.5 | 8.2 | 14.1 | 17.1 ± 0.4 | 8.9 | 1.9 | IC50 (AGS; [7]): 1.5 ± 0.3 µM; IC50 (AGS; [8]): 1.7 µM; IC50 (A549): 5.9 µM; IC50 (DU145): 3.6 µM; IC50 (Messa): 18.3 µM; IC50 (sarcoma cell lines): 12.1 ± 3.8 µM
O=[N+]([O-])c1cc(S(=O)(=O)Nc2ccc(C(F)(F)F)cc2)sc1Cl [Compound 6, 5-Chloro-4-nitrothiophene-2-sulfonic acid (4-trifluoromethylphenyl)amide] | 8 | 10.6 | 3.9 | 29.8 | 4.9 ± 2.3 | 8.4 ± 5.1 | 3.9 | 3.5 | 15 | 27.1 ± 4.9 | 20.4 ± 1.4 | 20.4 ± 1.4 | 2.9 | 15.5 | 6 | 10.2 | 17.8 | 22.5 ± 0.6 | 12 | 3.3 | IC50 (AGS; [7]): 2 ± 0.3 µM; IC50 (AGS; [8]): 2.2 µM; IC50 (A549): 10 µM; IC50 (DU145): 6.1 µM; IC50 (Messa): 16 µM; IC50 (sarcoma cell lines): 13.7 ± 3.1 µM
